Experimental findings from patent US20030100550A1, “Carboxamide diazepin derivatives, preparation method, use as medicines, pharmaceutical compositions and use thereof” (priority 2002, published 2003) are described below.

What all share (format): biochemical
The target of one assay is T1, Papain (Carica papaya, UniProt P00784).
T1 construct: purchased Sigma
T1 sequence (P00784 134-345): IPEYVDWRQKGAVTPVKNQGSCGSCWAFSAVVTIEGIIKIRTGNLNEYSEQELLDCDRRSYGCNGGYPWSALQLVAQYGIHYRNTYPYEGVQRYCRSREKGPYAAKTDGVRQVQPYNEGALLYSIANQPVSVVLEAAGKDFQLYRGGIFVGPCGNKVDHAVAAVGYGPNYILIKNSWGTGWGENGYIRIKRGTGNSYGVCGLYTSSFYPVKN
As to the kind of experiment: Study of Papain inhibition (fluorescence). The conditions noted are these: for IC50: enzyme 20 ng/ml, 30 minutes at ambient temperature. The procedure:
(§1) The products to be tested (10 mM) are diluted to […] in DMSO and distributed into Nunc polystyrene 96 well plates at a rate of 2 μl per well. Column 12 of the plate is reserved for the controls and therefore receives […] of DMSO (without products) per well. The plates are stored at −80° C. and thawed on the day of the experiment.
(§2) The products are diluted to 50 μM by adding 38 μl of reaction buffer: sodium acetate 100 mM, EDTA 5 mM, DTT […] pH 5.5. The addition as well as all the operations by pipette are carried out with a CybiWell 96 tip pipette. After mixing the solutions, each product is transferred into 2 wells (duplicates) of a Greiner black 384 well plate at a rate of 10 μl per well. Two 96-well plates can therefore be tested in a 384-well plate.
(§3) A solution of substrate at 50 μM, Z-Val-arg-AMC (Calbiochem), is prepared in the reaction buffer. The substrate, is then distributed into all the wells of the 384-well plate (20 μl per well).
(§4) A solution of Cathepsin K at 12.5 ng/ml is prepared in the reaction buffer and distributed into all the wells of the 384-well plate (20 μl per well) except for the 16 wells serving as 100% inhibition controls (column 23 and 24, lines I to P) which receive 20 μl of enzyme-free buffer.
(§5) The plates are then incubated 2H at ambient temperature, then read on Fluoroskan (Labsystems): excitation 390 nm; emission 460 nm
(§6) The final concentrations of each of the reagents are: products 10 μM, substrate 20 μM, enzyme 5 ng/ml.
(§7) The % inhibition for each of the products is calculated by using points at 0 and 100% inhibition of each plate as references. The products presenting a significant inhibition are then retested on a range of concentrations from 50 to 0.5 μM to determine an IC50.
Study of Papain Inhibition:
(§8) Protocol identical to that of Cathepsin K except for:
Papain (Sigma), solution at 50 ng/ml, final concentration 20 ng/ml
Incubation for 30 minutes at ambient temperature

The next assay concerns the target T2, Cathepsin B (Homo sapiens, UniProt P07858).
T2 construct: purchased Calbiochem
As to the kind of experiment: Study of Cathepsin B inhibition (fluorescence, Z-arg-arg-AMC). The settings on record: for IC50: substrate Z-arg-arg-AMC 20 μM, enzyme 16 ng/ml, 1 hour at ambient temperature. The method, then:
as §1, §2, §3, §4, §5, §6, §7
Study of Cathepsin B Inhibition:
as §8
Z-arg-arg-AMC substrate (Calbiochem), solution at 50 μM, final concentration 20 μM
Cathepsin B (Calbiochem), solution at 40 ng/ml, final concentration 16 ng/ml
Incubation for 1 hour at ambient temperature

A further assay addresses T3, Cathepsin K (Homo sapiens, UniProt P43235).
T3 sequence (P43235 115-329): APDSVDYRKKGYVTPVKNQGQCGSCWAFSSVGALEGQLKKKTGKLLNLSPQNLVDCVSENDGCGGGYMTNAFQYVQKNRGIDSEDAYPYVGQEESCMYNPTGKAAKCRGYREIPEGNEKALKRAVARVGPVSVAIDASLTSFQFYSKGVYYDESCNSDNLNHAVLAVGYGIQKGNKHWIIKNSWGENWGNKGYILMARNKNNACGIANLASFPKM
Nature of the assay: Study of Cathepsin K inhibition (fluorescence, Z-Val-arg-AMC). The conditions noted are these: for IC50: substrate Z-Val-arg-AMC 20 μM, enzyme 5 ng/ml, 2H at ambient temperature, read-out: Cathepsin K IC50. The gist of the method: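 Recombinant cathepsin K (5 ng/ml final) with 20 μM Z-Val-Arg-AMC in 100 mM sodium acetate, 5 mM EDTA, DTT, pH 5.5; compounds screened at 10 μM in duplicate, 2 h at ambient temperature, fluorescence ex 390/em 460 nm. % inhibition vs plate 0/100% controls; actives retested 50–0.5 μM for IC50.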

[1] abbreviates: printed beside 20 μM, meaning not explained.

In general, IC50 refers to the concentration at which inhibition is half-maximal. On Papain, `CC(C)(C)Oc1ccc(C[C@H](NC(=O)[C@@H]2CCCN3C(=O)CC[C@H](NC(=O)Nc4ccc(Oc5ccccc5)cc4)C(=O)N23)C(=O)C=[N+]=[N-])cc1` [Example 54, 9-[(9S)-[[(4-phenoxyphenyl)amino]carbonyl]amino]-N-[(2S)-4-diazo-1-[4-[(1,1-dimethyl)ethoxy]phenyl]-3-oxo-2-butyl]-6H-(1S)-pyridazino[1,2-a][1,2]diazepine-1-carboxamide] displayed an IC50 of 15 µM. Besides, on Cathepsin B (setting [1]), the “Cathepsin B, percentage in parentheses beside IC50 value (% inhibition)” value amounted to 30%.
Take `C=CCOC(=O)CC[C@H](NC(=O)[C@@H]1CCCN2C(=O)CCC[C@H](NC(=O)NC3CCCCC3)C(=O)N12)C(=O)COC(=O)c1c(Cl)cccc1Cl` [Example 122, (2-propenyl)(4S)6-[(2,6-dichlorobenzoyl)oxy]-4-[[[(1S,9S)-9-[[(cyclohexylamino)carbonyl]amino]-octahydro-6,10-dioxo-o-6H-pyridazino[1,2-a][1,2]diazepine-1-yl]carbonyl]amino]-5-oxo-hexanoate]: the IC50 on Cathepsin K was determined as 18 µM; against Cathepsin B, 700 nM. Besides, the “Papain, percentage in parentheses beside IC50 value (% inhibition)” value at Papain (setting [1]) is 45%.
Turning to `C=CCOC(=O)CC[C@H](NC(=O)[C@@H]1CCCN2C(=O)CC[C@H](NC(=O)Nc3ccc(Oc4ccccc4)cc3)C(=O)N12)C(=O)COC(=O)c1c(Cl)cccc1Cl` [Example 132, (2-propenyl)(4S)6-[(2,6-dichlorobenzoyl)oxy]-4-[[[(1S,9S)-9-[[[(4-phenoxyphenyl)amino]carbonyl]amino]-octahydro-6,10-dioxo-6H-pyridazino[1,2-a][1,2]diazepine-1-yl]carbonyl]amino]-5-oxo-hexanoate], the results for the half-inhibitory concentration (IC50) at Cathepsin K, at Papain and on Cathepsin B were 20 µM, 6 µM and 2000 nM, respectively.
For the compound `[N-]=[N+]=CC(=O)[C@H](Cc1ccccc1)NC(=O)[C@@H]1CCCN2C(=O)CC[C@H](NC(=O)Nc3ccc(Oc4ccccc4)cc3)C(=O)N12` [Example 161, 9-[(9S)[[(4-phenoxyphenyl)amino]carbonyl]amino]-N-((2S)-4-diazo-1-phenyl-3-oxo-2-butyl)-octahydro-6,10-dioxo-6H-(1S)-pyridazino[1,2-a][1,2]diazepine-1-carboxamide], the half-inhibitory concentration (IC50) at Papain is 19 µM; at Cathepsin B, 9000 nM.
`[N-]=[N+]=CC(=O)[C@H](Cc1ccccc1)NC(=O)[C@@H]1CCCN2C(=O)CC[C@H](NS(=O)(=O)c3ccc(-c4ccon4)s3)C(=O)N12` [Example 166, 9-[(9S)-[[5-(isoxazol-3-yl)-2-thienyl]sulphonyl]amino]-N-((2S)-4-diazo-1-phenyl-3-oxo-2-butyl)-octahydro-6,10-dioxo-6H-(1S)-pyridazino[1,2-a][1,2]diazepine-1-carboxamide]: the values for the half-inhibitory concentration (IC50) at Cathepsin K and against Papain were 20 µM and 2 µM, respectively.
For the compound `O=C(Nc1ccc(Oc2ccccc2)cc1)N[C@H]1CCC(=O)N2CCC[C@@H](C(=O)N[C@@H](Cc3ccccc3)C(=O)CSc3nnnn3-c3ccccc3)N2C1=O` [Example 211, 9-[(9S)-[[(4-phenoxyphenyl)amino]carbonyl]amino]-N-[(2S)-1-phenyl-4-[(1-phenyl-1H-tetrazol-5-yl)thio]-3-oxo-2-butyl]-octahydro-6,10-dioxo-6H-(1S)-pyridazino[1,2-a][1,2]diazepine-1-carboxamide], the results for the IC50 at Cathepsin K and at Papain were 20 µM and 6 µM, respectively.
As for `COC(=O)CCCC(=O)OCC(=O)[C@H](Cc1ccccc1)NC(=O)[C@@H]1CCCN2C(=O)CC[C@H](NC(=O)Nc3ccc(Oc4ccccc4)cc3)C(=O)N12` [Example 217], the “Cathepsin K, percentage in parentheses beside IC50 value (% inhibition)” value at Cathepsin K (setting [1]) is 30%. The figures for the IC50 on Cathepsin K and against Papain were 20 µM and 7 µM, respectively.
As for `O=C(NCCc1cccs1)N[C@H]1CCC(=O)N2CCC[C@@H](C(=O)N[C@@H](Cc3ccccc3)C(=O)CSc3nnnn3-c3ccccc3)N2C1=O` [Example 220, 9-[(9S)-[[[2-(thien-2-yl)-ethyl]amino]carbonyl]amino]-N-[(2S)-1-phenyl-4-[(1-phenyl-1H-tetrazol-5-yl)thio]-3-oxo-2-butyl]-octahydro-6,10-dioxo-6H-(1S)-pyridazino [1,2-a][1,2]diazepine-1-carboxamide], the concentration for half-maximal inhibition (IC50) was determined as 20 µM at Cathepsin K and 6 µM on Papain.
As for `O=C(NCCc1cccs1)N[C@H]1CCC(=O)N2CCC[C@@H](C(=O)N[C@@H](Cc3ccccc3)C(=O)CSc3nc4ccccc4s3)N2C1=O` [Example 221, 9-[(9S)-[[[2-(thien-2-yl)-ethyl]amino]carbonyl]amino]-N-[(2S)-1-phenyl-4-[(2-benzothiazolyl)thio]-3-oxo-2-butyl]-octahydro-6,10-dioxo-6H-(1S)-pyridazino[1,2-a][1,2]diazepine-1-carboxamide], the values for the IC50 on Cathepsin K and against Papain were 20 µM and 7 µM, respectively.
Consider `CC(C)[C@H](NC(=O)[C@@H]1CCCN2C(=O)CC[C@H](NC(=O)c3ccco3)C(=O)N12)C(=O)CSc1nc2ccccc2s1` [Example 374, 9-[(9S)-[(2-furanyl)carbonyl]amino]-N-[(3S)-1-[(benzothiazol-2-yl)thio]-4-methyl-2-oxo-3-pentyl]-octahydro-6,10-dioxo-6H-(1S)-pyridazino[1,2-a][1,2]diazepine-1-carboxamide], for which the IC50 on Cathepsin K was determined as 20 µM; against Papain it was 7 µM.
In the same order, the values of `CC(C)[C@H](NC(=O)[C@@H]1CCCN2C(=O)CC[C@H](NC(=O)NC3CCCCC3)C(=O)N12)C(=O)CSc1nc2ccccc2s1` [Example 382, 9-[(9S)-[(cyclohexylamino)carbonyl]amino]-N-[(3S)-1-[(benzothiazol-2-yl)thio]-4-methyl-2-oxo-3-pentyl]-octahydro-6,10-dioxo-6H-(1S)-pyridazino[1,2-a][1,2]diazepine-1-carboxamide] are 20 µM and 9 µM.
Take `CC(C)[C@H](NC(=O)[C@@H]1CCCN2C(=O)CC[C@H](NC(=O)Nc3ccc(Oc4ccccc4)cc3)C(=O)N12)C(=O)CSc1nnnn1-c1ccccc1` [Example 389, 9-[(9S)-[[(4-phenoxyphenyl)amino]carbonyl]amino]-N-[(3S)-1-[(1-phenyl-1H-tetrazol-5-yl)thio]-4-methyl-2-oxo-3-pentyl]-octahydro-6,10-dioxo-6H-(1S)-pyridazino [1,2-a][1,2]diazepine-1-carboxamide]: the values for the IC50 on Cathepsin K and against Papain were 20 µM and 6 µM, respectively.
With `CC(C)[C@H](NC(=O)[C@@H]1CCCN2C(=O)CC[C@H](NC(=O)NCCc3cccs3)C(=O)N12)C(=O)CSc1nnnn1-c1ccccc1` [Example 397, 9-[(9S)-[[[2-(thien-2-yl)-ethyl]amino]carbonyl]amino]-N-[(3S)-1-[(1-phenyl-1H-tetrazol-5-yl)thio]-4-methyl-2-oxo-3-pentyl]-octahydro-6,10-dioxo-6H-(1S)-pyridazino [1,2-a][1,2]diazepine-1-carboxamide], the results for the half-inhibitory concentration (IC50) on Cathepsin K and on Papain were 20 µM and 18 µM, respectively.
Taken in the same sequence, the figures for `C[C@H](NC(=O)[C@@H]1CCCN2C(=O)CC[C@H](NC(=O)Nc3ccc(Oc4ccccc4)cc3)C(=O)N12)C(=O)CSc1nc2ccccc2s1` [Example 450, 9-[(9S)-[[(4-phenoxyphenyl)amino]carbonyl]amino]-N-[(2S)-4-[(benzothiazol-2-yl)thio]-3-oxo-2-butyl]-octahydro-6,10-dioxo-6H-(1S)-pyridazino[1,2-a][1,2]diazepine-1-carboxamide] were 20 µM and 18 µM.
